Data taken from US20260374750A1, “LIGANDS SPECIFICALLY TARGETING VESICULAR GLUTAMATE TRANSPORTERS FOR SUPER-RESOLUTION IMAGING” (SORBONNE UNIVERSITÉ, priority 2021, published 2026).

What was measured:
[1] = Fluorimetry: absorption and emission spectra, Stokes shift, molar absorption coefficient, quantum efficiency; type: physicochemical; parameters: λmax abs / λmax em: unit not given here; key to Stokes shift: λmaxem − λmaxabs (emission peak minus absorption peak); details: for Stokes shift: λmaxem-λmaxabs; for ε (molar absorption coefficient) / φ (quantum efficiency): coumarin-343 as reference
Protocol: The physicochemical properties of each ligand were determined thanks to fluorimetry. For each compound, a dilution range was performed and measurements were taken at 1 mM, 316 μM, 100 μM, 31.6 μM, 10 μM, 3.16 μM and 1μ. In 96-well fluorescence microplates, the absorbance and emission spectra of the ligands could be determined at each concentration thanks to a plate spectrophotometer (Tecan). The absorbance spectra are first measured for each compound so as to determine the maximum absorption wavelength (λmaxabs). The fluorescence, or emission, spectra are then determined after excitation of each compound at its λmaxabs, thus allowing obtaining the maximum fluorescence wavelength (λmaxem). Different parameters specific to each of the compounds were determined: • The Stokes shift: it corresponds to the difference between the peak of the absorption spectrum and the peak of the fluorescence spectrum, i.e.: λmaxem-λmaxabs • The molar absorption coefficient (ε): it reflects the capacity of the solutions to absorb light and is determined by the formula ε=A/(C.I)(A: optical density at λmaxabs, C: concentration of the compound, I: constant corresponding to the length of the optical path). ε is expressed in L·cm^−1·mol^−1. • The quantum efficiency (Φ): it represents the ratio of the number of photons emitted to the number of photons absorbed by the compound, i.e. the “probability” for an excited molecule to emit a photon. It takes a value between 0 and 1, 0 corresponding to a non-fluorescent molecule and 1 meaning that there is no de-excitation. Its value is determined thanks to the following formula where Abs: optical density at λmaxabs, AUC: area under the curve of the fluorescence spectrum, n: refractive index of the medium. In this formula, “m” refers to the studied molecule, and “r” to a reference fluorophore.
[formula] • of the fluorescence spectrum, n: refractive index of the medium). In this formula, “m” refers to the studied molecule, and “r” to a reference fluorophore.
The determination of ε and Φ requires the use of a reference fluorescent molecule for which these two parameters are known. Because of its coumarin-type fluorescent pattern, therefore close to those of the studied compounds, coumarin-343 (ε=44300 L·cm−1·mol−1 and Φ=0.63 in ethanol) was used as reference fluorophore. These two parameters were recalculated in the compound dilution medium (DMSO), and were used as a reference in the calculation of ε and Φ for each ligand.
In order to study the effect of a pH variation on the fluorescence intensity of the compounds, the measurements of the absorption and emission spectra were carried out in three different dilution media: • DMSO: pure dimethyl sulfoxide • Phosphate buffer pH 7.2 (0.2 M) • Phosphate buffer pH 5.5 (0.2 M)
FIG. 1 illustrates the absorption and emission spectra of the compound referenced L8, a carboxylic acid from the quinoline family. This is an example of the study carried out on each of the studied fluorophores. The graphic values determined thanks to these spectra are the λmaxabs, the λmaxem and the Stokes shift in each medium. […] The most diluted wells are preferred to see the emission peak of the compound.
The results which are obtained graphically thanks to the excitation and emission spectra and by calculation via the properties of coumarin 343 are grouped in Table 2 below.

[2] = test system: BON WT cells; experiment: Confocal fluorescence labeling of wild-type BON cells; type: cell-based, human; details: FIG. 2
Protocol: The experiments are carried out with a BON cell line stably expressing VGLUT3 or a fluorescent VGLUT2 “VGLUT2-venus”. Wild non-transfected BON cells (“wild-type”, BON WT) are used as controls. The cells are cultured in F-12 Nutrient Mixture Ham medium (21765-029, Thermo Fisher Scientific) and Dulbecco's Modified Eagle's Medium High Glucose (DMEM HG, 31966021, Thermo Fisher Scientific; volume/volume), supplemented with 10% fetal calf serum (FCS, 12483012, Thermo Fisher Scientific) and 1% (volume/volume) of a mixture of streptomycin (10 mg/mL)/penicillin (10,000 U/mL) and […] an incubator at 37 °C under 5% CO2. For the transfected clones, the medium is enriched with 0.8 mg/mL Geneticin G418 sulfate (G418, 10131027, Thermo Fisher Scientific).
Two days before each experiment, after trypsinization of the cells from a culture flask, the cell suspension is seeded at 150,000 cells/well, in twelve-well plates on glass coverslips 19 mm in diameter. For observation, these coverslips are placed in a chamber allowing a hermetic fixation of the coverslip in the observation medium, Fluorobrite™ DMEM (A1896701, Thermo Fisher Scientific), a transparent medium.
Before each observation, the cells are incubated at 37 °C in the presence of fluorescent ligands, at previously determined concentrations. The effect of a pretreatment of BON cells with a specific inhibitor of VGLUTs, the substance LSP5-2157, is also performed to study the inhibitory effect of this substance on the labeling of BON cells with the fluorescent ligands of the invention.
The cells are observed in real time under an inverted confocal microscope, with a 63× objective in a room thermostated at 37 °C (Leica TCS SP5; cellular imaging platform of the Paris-Seine Institute of Biology). The studied fluorescent molecules emit in the blue, the cells are excited at 405 nm.
FIG. 2 illustrates the observation and quantification of the BON cells under a confocal microscope, and the inhibition of the fluorescent signal by a pretreatment of the cells with the specific VGLUT inhibitor, LSP5-2157. […] The images are presented in negative. D,H,L and P: Quantification of the treatment effect.

[3] = pH 7 (phosphate buffer pH 7.2, 0.2 M)
[4] = phosphate buffer pH 5.5 (0.2 M)

| Structure (SMILES) | λmax em ([1]; DMSO) | Stokes shift ([1]; DMSO) | ε (molar absorption coefficient) ([1]; DMSO) [L/cm/mol] | φ (quantum efficiency) ([1]; DMSO) | Stokes shift ([1]; pH 5.5) | λmax abs [1, 3] | λmax em [1, 3] | Stokes shift ([1]; pH 7) | λmax abs [1, 4] | λmax em [1, 4] | λmax abs ([1]; DMSO) | fluorescence intensity of emission spectra ([1]; FIG. 1) | labeling in cytoplasm of BON WT cells [2] |
| --- | --- | --- | --- | --- | --- | --- | --- | --- | --- | --- | --- | --- | --- |
| CCOC(=O)c1cc2cc(C#Cc3ccc(-c4ccc(N)cc4)cc3)c(O)cc2oc1=O [F11, Ethyl-6-((4′-amino-[1,1′-biphenyl]-4-yl)ethynyl)-7-hydroxy-2-oxo-2H-chromene-3-carboxylate] | 500-620 | 160 | 62227.6 | 0.18 | 45 | 365 | 425 | 60 | 365 | 410 | – | – | – |
| O=C(O)c1cc(C(=O)O)c2cc(-c3ccc(-c4ccccc4)cc3)ccc2n1 [LSP13-1152-YL152 (L8), 6-(Biphenyl-4-yl) quinoline-2,4-dicarboxylic Acid] | 415 | 60 | 35280.3 | 0.32 | 80 | 330 | – | 80 | 330 | 410 | 355 | very significant fluorescence intensities | a weak and homogeneous labeling is detected |
| Nc1ccc(-c2ccc(-c3cn(-c4ccc5oc(=O)c(C(=O)O)cc5c4)nn3)cc2)cc1 [LSP17-1115, 6-(4-(4′-amino-[1,1′-biphenyl]-4-yl)-1H-1,2,3-triazol-1-yl)-2-oxo-2H-chromene-3-carboxylic Acid] | 410 | 85 | 36944.8 | 0.06 | 43 | 365 | 415 | 50 | 365 | 408 | 325 | – | – |
| COc1cc2oc(=O)c(C(=O)O)cc2cc1-n1cc(-c2ccc(-c3ccc(N)cc3)cc2)nn1 [LSP17-1124, 6-(4-(4′-amino-[1,1′-biphenyl]-4-yl)-1H-1,2,3-triazol-1-yl)-7-methoxy-2-oxo-2H-chromene-3-carboxylic Acid] | 405-511 | 75 | 21908.6 | 0.14 | 45 | 365 | 416 | 51 | 335 | 380 | 330 | – | – |
| Nc1ccc(-c2ccc(C#Cc3cc4cc(C(=O)O)c(=O)oc4cc3O)cc2)cc1 [LSP17-1173, 6-((4′-amino-[1,1′-biphenyl]-4-yl)ethynyl)-7-hydroxy-2-oxo-2H-chromene-3-carboxylic Acid] | 460 | 125 | 51857.8 | 0.06 | 47 | 360 | – | 80 | 365 | 412 | – | – | a weak and homogeneous labeling is detected |
